Data from the supplement of paper PMC11451515.

Legend:
Settings in all cases: 48 h
P12-Ichikawa [1] = assay: cell viability relative to DMSO control; higher = less cytotoxic
Summary of the method: (§1)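 NOMO1 or SEM (500 cells/well) or P12-Ichikawa (1000 cells/well) leukemia cells were adapted for at least four passages in each medium. They were seeded in 1536-well plates (5 μl) and pin-dosed with library compounds in DMSO over an 11-point threefold series, 47 μM to 0.79 nM. CellTiter-Glo One luminescence was read after 48 h at 37°C. Viability is the per-plate percentage relative to DMSO wells, with cell-free wells as background.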

SEM cells [2] = assay: as above
Summary of the method: as §1

NOMO1 [3] = assay: as above
Summary of the method: as §1

P12-Ichikawa [4] = assay: AUC of viability dose-response curve (% viability x log10 dose units); higher = less sensitive
Summary of the method: (§2)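 In 1536-well plates, leukemia cells adapted to each medium (500 or 1000 cells/well) were exposed for 48 h at 37°C to library compounds in DMSO across 11 threefold doses, 47 μM down to 0.79 nM. Viability was read by CellTiter-Glo One luminescence and normalised per plate to DMSO and cell-free wells. A four-parameter log-logistic fit over log10 doses was integrated by trapezoidal rule. This yielded the area under the curve, with over-full-viability curves scaled and quality-control failures dropped.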

SEM cells [5] = assay: as above
Summary of the method: as §2

NOMO1 [6] = assay: as above
Summary of the method: as §2

CN(C)CC[C@H](c1ccc(Cl)cc1)c1ccccn1
cell viability [%]
Settings | NOMO1 [3] | P12-Ichikawa [1] | SEM cells [2]
HPLM + 10% dialyzed FBS, 0.000781 µM | 70.4 | 83.7 | 70.8
HPLM + 10% dialyzed FBS, 0.00234 µM | 74 | 78.9 | 72.6
HPLM + 10% dialyzed FBS, 0.00702 µM | 78.8 | 84.2 | 79.4
HPLM + 10% dialyzed FBS, 0.0211 µM | 77.9 | 84.8 | 78.8
HPLM + 10% dialyzed FBS, 0.0632 µM | 75.7 | 90.7 | 86.1
HPLM + 10% dialyzed FBS, 0.19 µM | 77.9 | 90.3 | 73.7
HPLM + 10% dialyzed FBS, 0.569 µM | 88.3 | 85.8 | 82.2
HPLM + 10% dialyzed FBS, 1.71 µM | 79.7 | 90.9 | 75.2
HPLM + 10% dialyzed FBS, 5.12 µM | 81 | 87.1 | 89.5
HPLM + 10% dialyzed FBS, 15.4 µM | 78.8 | 86 | 83.8
HPLM + 10% dialyzed FBS, 46.1 µM | 87.1 | 89.7 | 72.3
RPMI 5 mM glucose + 10% FBS, 0.000781 µM | 75 | 76.9 | 80.6
RPMI 5 mM glucose + 10% FBS, 0.00234 µM | 76.5 | 78 | 74.3
RPMI 5 mM glucose + 10% FBS, 0.00702 µM | 77.1 | 75.6 | 91
RPMI 5 mM glucose + 10% FBS, 0.0211 µM | 80.3 | 78.9 | 92.4
RPMI 5 mM glucose + 10% FBS, 0.0632 µM | 81.4 | 80.8 | 88.6
RPMI 5 mM glucose + 10% FBS, 0.19 µM | 81.2 | 80.8 | 95.3
RPMI 5 mM glucose + 10% FBS, 0.569 µM | 80.7 | 90.4 | 100
RPMI 5 mM glucose + 10% FBS, 1.71 µM | 79.6 | 85.2 | 87.2
RPMI 5 mM glucose + 10% FBS, 5.12 µM | 83.2 | 84.1 | 101
RPMI 5 mM glucose + 10% FBS, 15.4 µM | 79.9 | 81.2 | 92.7
RPMI 5 mM glucose + 10% FBS, 46.1 µM | 83.7 | 82.3 | 101
RPMI 5 mM glucose + 10% dialyzed FBS, 0.000781 µM | 74 | 69.9 | 78.9
RPMI 5 mM glucose + 10% dialyzed FBS, 0.00234 µM | 88.2 | 81.6 | 83.4
RPMI 5 mM glucose + 10% dialyzed FBS, 0.00702 µM | 83.1 | 73.6 | 82.4
RPMI 5 mM glucose + 10% dialyzed FBS, 0.0211 µM | 85.9 | 83.9 | 86
RPMI 5 mM glucose + 10% dialyzed FBS, 0.0632 µM | 81.5 | 86.2 | 87.1
RPMI 5 mM glucose + 10% dialyzed FBS, 0.19 µM | 86.5 | 80.9 | 95.4
RPMI 5 mM glucose + 10% dialyzed FBS, 0.569 µM | 95.7 | 78.1 | 80.5
RPMI 5 mM glucose + 10% dialyzed FBS, 1.71 µM | 89.5 | 78.8 | 87.3
RPMI 5 mM glucose + 10% dialyzed FBS, 5.12 µM | 89.5 | 76.9 | 104
RPMI 5 mM glucose + 10% dialyzed FBS, 15.4 µM | 91 | 82.3 | 93.2
RPMI 5 mM glucose + 10% dialyzed FBS, 46.1 µM | 82.8 | 77.5 | 75.1

AUC of viability dose-response curve
Settings | NOMO1 [6] | P12-Ichikawa [4] | SEM cells [5]
HPLM + 10% dialyzed FBS | 378 | 413 | 376
RPMI 5 mM glucose + 10% FBS | 382 | 388 | 438
RPMI 5 mM glucose + 10% dialyzed FBS | 412 | 379 | 414

CC(O)(C#Cc1ccc2c(c1)N(c1nc(N)ncc1Cl)CC2)c1nccs1 (centres undefined)
cell viability [%]
Settings | NOMO1 [3] | P12-Ichikawa [1] | SEM cells [2]
HPLM + 10% dialyzed FBS, 0.000781 µM | 98.7 | 111 | 97.3
HPLM + 10% dialyzed FBS, 0.00234 µM | 119 | 123 | 110
HPLM + 10% dialyzed FBS, 0.00702 µM | 132 | 121 | 113
HPLM + 10% dialyzed FBS, 0.0211 µM | 104 | 71 | 100
HPLM + 10% dialyzed FBS, 0.0632 µM | 130 | 116 | 125
HPLM + 10% dialyzed FBS, 0.19 µM | 131 | 123 | 107
HPLM + 10% dialyzed FBS, 0.569 µM | 130 | 126 | 109
HPLM + 10% dialyzed FBS, 1.71 µM | 134 | 121 | 120
HPLM + 10% dialyzed FBS, 5.12 µM | 152 | 117 | 111
HPLM + 10% dialyzed FBS, 15.4 µM | 136 | 116 | 111
HPLM + 10% dialyzed FBS, 46.1 µM | 87.5 | 96.8 | 72.4
RPMI 5 mM glucose + 10% FBS, 0.000781 µM | – | 107 | 88.2
RPMI 5 mM glucose + 10% FBS, 0.00234 µM | – | 118 | 87.3
RPMI 5 mM glucose + 10% FBS, 0.00702 µM | – | 123 | 107
RPMI 5 mM glucose + 10% FBS, 0.0211 µM | – | 79.2 | 62.8
RPMI 5 mM glucose + 10% FBS, 0.0632 µM | – | 127 | 92.9
RPMI 5 mM glucose + 10% FBS, 0.19 µM | – | 115 | 97.7
RPMI 5 mM glucose + 10% FBS, 0.569 µM | – | 121 | 102
RPMI 5 mM glucose + 10% FBS, 1.71 µM | – | 127 | 101
RPMI 5 mM glucose + 10% FBS, 5.12 µM | – | 126 | 102
RPMI 5 mM glucose + 10% FBS, 15.4 µM | – | 115 | 84.5
RPMI 5 mM glucose + 10% FBS, 46.1 µM | – | 74.3 | 43.5
RPMI 5 mM glucose + 10% dialyzed FBS, 0.000781 µM | 124 | – | 117
RPMI 5 mM glucose + 10% dialyzed FBS, 0.00234 µM | 113 | – | 120
RPMI 5 mM glucose + 10% dialyzed FBS, 0.00702 µM | 136 | – | 119
RPMI 5 mM glucose + 10% dialyzed FBS, 0.0211 µM | 131 | – | 82.5
RPMI 5 mM glucose + 10% dialyzed FBS, 0.0632 µM | 135 | – | 107
RPMI 5 mM glucose + 10% dialyzed FBS, 0.19 µM | 135 | – | 103
RPMI 5 mM glucose + 10% dialyzed FBS, 0.569 µM | 135 | – | 117
RPMI 5 mM glucose + 10% dialyzed FBS, 1.71 µM | 127 | – | 123
RPMI 5 mM glucose + 10% dialyzed FBS, 5.12 µM | 138 | – | 114
RPMI 5 mM glucose + 10% dialyzed FBS, 15.4 µM | 147 | – | 109
RPMI 5 mM glucose + 10% dialyzed FBS, 46.1 µM | 110 | – | 59.2

AUC of viability dose-response curve
Settings | NOMO1 [6] | P12-Ichikawa [4] | SEM cells [5]
HPLM + 10% dialyzed FBS | 455 | 477 | 469
RPMI 5 mM glucose + 10% FBS | 467 | 468 | 430
RPMI 5 mM glucose + 10% dialyzed FBS | 468 | 464 | 465
